Values quoted from earlier work in PubChem BioAssay AID1259409 (Chemical Carcinogenesis Research Information System (CCRIS), 2018).

Tested on: rodent chemically induced tumor inhibition, incidence and multiplicity
Test: CCRIS tumor inhibitor studies
Settings: for outcome: Strain/Sex: SENCAR/FEMALE, Dose [Carcinogen]: 40 NMOL IN 0.2 ML ACETONE ONCE

## C[C@H]1CCCC(=O)CCC/C=C/c2cc(O)cc(O)c2C(=O)O1
Carcinogen: 7,12-DIMETHYLBENZ[A]ANTHRACENE [57-97-6], Dose [Inhibitor]: 20 UG/L IN 0.05 ML PEANUT OIL 2X/WK FOR 2 WK BEGINNING AT 7 D OF AGE (STUDY DURATION: 24 WK), Route [Inhibitor]: SUBCUTANEOUS, Species: RAT, Strain/Sex: SPRAGUE-DAWLEY/FEMALE, Target Tissue: Type of Lesion: MAMMARY GLAND: TUMOR, Dose [Carcinogen]: 10 MG IN 1 ML PEANUT OIL ONCE AT 45 D OF AGE (STUDY DURATION: 24 WK), Promoter: NONE
  tumour outcome (control, treated, inhibition, significance): 17/30 (57%), 9/30 (30%), 47%, p<0.018

## CC1(C)[C@@H](O)CC[C@]2(C)[C@H]3C(=O)C=C4[C@H]5C[C@@](C)(C(=O)O)CC[C@]5(C)CC[C@@]4(C)[C@]3(C)CC[C@@H]12
Carcinogen: 7,12-DIMETHYLBENZ[A]ANTHRACENE, 57-97-6, Dose [Inhibitor]: 0, 10 UMOL IN 0.2 ML DMSO/ACETONE (1:2) 1/D BEGINNING 7 D PRIOR TO CARCINOGEN DOSE (STUDY DURATION: 16 WK), Route [Inhibitor]: DERMAL, Species: MOUSE, Target Tissue: Type of Lesion: SKIN: TUMOR
  outcome: 100%, 65%, 35%, not calculated at 9 wk; 100%, 100%, 0%, not significant at 16 wk
Carcinogen: 7,12-DIMETHYLBENZ[A]ANTHRACENE, 57-97-6, Dose [Inhibitor]: 0, 30 UMOL IN DMSO/ACETONE (1:2) 30 MIN PRIOR TO EACH PROMOTER DOSE (STUDY DURATION: 16 WK), Route [Inhibitor]: DERMAL, Species: MOUSE, Target Tissue: Type of Lesion: SKIN: TUMOR
  outcome: 100%, 10%, 90%, not calculated at 9 wk; 100%, 80%, 20%, not calculated at 16 wk

## CC1(C)O[C@@H]2C[C@H]3[C@@H]4C[C@H](F)C5=CC(=O)C=C[C@]5(C)[C@@]4(F)[C@@H](O)C[C@]3(C)[C@]2(C(=O)CO)O1
Carcinogen: 3-METHYLCHOLANTHRENE, 56-49-5, Dose [Inhibitor]: 1 UG IN ACETONE 2/WK FOR 23 WK BEGINNING 1 WK POST CARCINOGEN DOSE (STUDY DURATION: 24 WK), Route [Inhibitor]: DERMAL, Species: MOUSE, Strain/Sex: CD-1/MALE, Target Tissue: Type of Lesion: SKIN: TUMOR, Dose [Carcinogen]: 600 UG IN ACETONE ONCE, Promoter: NONE USED
  tumour outcome (control, treated, inhibition, significance): 10%, 5%, 50%, not calculated
Carcinogen: 3-METHYLCHOLANTHRENE, 56-49-5, Dose [Inhibitor]: 10 UG IN ACETONE 2/WK FOR 23 WK BEGINNING 1 WK POST CARCINOGEN DOSE (STUDY DURATION: 24 WK), Route [Inhibitor]: DERMAL, Species: MOUSE, Strain/Sex: CD-1/MALE, Target Tissue: Type of Lesion: SKIN: TUMOR, Dose [Carcinogen]: 600 UG IN ACETONE ONCE, Promoter: NONE USED
  tumour outcome (control, treated, inhibition, significance): 10%, 45%, -350%, not calculated
Carcinogen: 7,12-DIMETHYLBENZ[A]ANTHRACENE, 57-97-6, Dose [Inhibitor]: 0, 0.5 NMOL IN 200 µL ACETONE APPLIED 30 MIN PRIOR TO EACH PROMOTER DOSE 2/WK FOR 25 WK BEGINNING 1 WK POST CARCINOGEN D, Route [Inhibitor]: DERMAL, Species: MOUSE, Strain/Sex: CD-1/FEMALE, Target Tissue: Type of Lesion: SKIN: PAPILLOMA, Dose [Carcinogen]: 200 NMOL IN 200 µL ACETONE ONCE, Promoter: 12-O-TETRADECANOYLPHORBOL-13-ACETATE, 16561-29-8
  tumour outcome (control, treated, inhibition, significance): 90%, 40%, 56%, not calculated
Carcinogen: 7,12-DIMETHYLBENZ[A]ANTHRACENE, 57-97-6, Dose [Inhibitor]: 0, 0.5 NMOL IN 200 µL ACETONE APPLIED 30 MIN PRIOR TO EACH PROMOTER DOSE 2/WK FOR 25 WK BEGINNING 1 WK POST CARCINOGEN D, Route [Inhibitor]: DERMAL, Species: MOUSE, Strain/Sex: CD-1/FEMALE, Target Tissue: Type of Lesion: SKIN: PAPILLOMA, Dose [Carcinogen]: 200 NMOL IN 200 µL ACETONE ONCE, Promoter: MIREX, 2385-85-5
  tumour outcome (control, treated, inhibition, significance): 100%, 97%, 3%, not significant
Carcinogen: 7,12-DIMETHYLBENZ[A]ANTHRACENE, 57-97-6, Dose [Inhibitor]: 0, 2 NMOL IN 200 µL ACETONE APPLIED 30 MIN PRIOR TO EACH PROMOTER DOSE 2/WK FOR 25 WK BEGINNING 1 WK POST CARCINOGEN DOS, Route [Inhibitor]: DERMAL, Species: MOUSE, Strain/Sex: CD-1/FEMALE, Target Tissue: Type of Lesion: SKIN: PAPILLOMA, Dose [Carcinogen]: 200 NMOL IN 200 µL ACETONE ONCE, Promoter: 12-O-TETRADECANOYLPHORBOL-13-ACETATE, 16561-29-8
  tumour outcome (control, treated, inhibition, significance): 90%, 11%, 88%, not calculated
Carcinogen: 7,12-DIMETHYLBENZ[A]ANTHRACENE, 57-97-6, Dose [Inhibitor]: 0, 2 NMOL IN 200 µL ACETONE APPLIED 30 MIN PRIOR TO EACH PROMOTER DOSE 2/WK FOR 25 WK BEGINNING 1 WK POST CARCINOGEN DOS, Route [Inhibitor]: DERMAL, Species: MOUSE, Strain/Sex: CD-1/FEMALE, Target Tissue: Type of Lesion: SKIN: PAPILLOMA, Dose [Carcinogen]: 200 NMOL IN 200 µL ACETONE ONCE, Promoter: MIREX, 2385-85-5
  tumour outcome (control, treated, inhibition, significance): 100%, 92%, 8%, not calculated

## C#C[C@]1(O)CC[C@H]2[C@@H]3CCC4=CC(=O)CC[C@@H]4[C@H]3CC[C@@]21CC (tested in a mixture with another compound)
Carcinogen: 3-METHYLCHOLANTHRENE, 56-49-5, Dose [Inhibitor]: 0, 1/200 OF A PILL CONTAINING 0.25 UG ETHINYLESTRADIOL AND 2.5 UG NORGESTREL 1/D FOR 60 D (STUDY DURATION: 60 D), Route [Inhibitor]: ORAL, Species: MOUSE, Strain/Sex: SWISS/FEMALE, Target Tissue: Type of Lesion: UTERINE CERVIX: TUMOR, Dose [Carcinogen]: 300 UG IN BEESWAX IMPREGNATED COTTON THREAD INSERTED INTO CANAL OF UTERINE CERVIX FOR DURATION OF STUDY, Promoter: NONE USED
  tumour outcome (control, treated, inhibition, significance): 2/23 (9%), 1/16 (6%), 33%, not significant
Carcinogen: 3-METHYLCHOLANTHRENE, 56-49-5, Dose [Inhibitor]: 0, 1/200 OF A PILL CONTAINING 0.25 UG ETHINYLESTRADIOL AND 2.5 UG NORGESTREL 1/D FOR 90 D (STUDY DURATION: 90 D), Route [Inhibitor]: ORAL, Species: MOUSE, Strain/Sex: SWISS/FEMALE, Target Tissue: Type of Lesion: UTERINE CERVIX: TUMOR, Dose [Carcinogen]: 300 UG IN BEESWAX IMPREGNATED COTTON THREAD INSERTED INTO CANAL OF UTERINE CERVIX FOR DURATION OF STUDY, Promoter: NONE USED
  tumour outcome (control, treated, inhibition, significance): 6/23 (26%), 1/29 (3%), 88%, p<0.05
Carcinogen: 3-METHYLCHOLANTHRENE, 56-49-5, Dose [Inhibitor]: 0, 1/2000 OF A PILL CONTAINING 0.025 UG ETHINYLESTRADIOL AND 0.25 UG OF NORGESTREL 1/D FOR 60 D (STUDY DURATION: 60 D), Route [Inhibitor]: ORAL, Species: MOUSE, Strain/Sex: SWISS/FEMALE, Target Tissue: Type of Lesion: UTERINE CERVIX: TUMOR, Dose [Carcinogen]: 300 UG IN BEESWAX IMPREGNATED COTTON THREAD INSERTED INTO CANAL OF UTERINE CERVIX FOR DURATION OF STUDY, Promoter: NONE USED
  tumour outcome (control, treated, inhibition, significance): 2/23 (9%), 0/22 (0%), 100%, not significant
Carcinogen: 3-METHYLCHOLANTHRENE, 56-49-5, Dose [Inhibitor]: 0, 1/2000 OF A PILL CONTAINING 0.025 UG ETHINYLESTRADIOL AND 0.25 UG OF NORGESTREL 1/D FOR 90 D (STUDY DURATION: 90 D), Route [Inhibitor]: ORAL, Species: MOUSE, Strain/Sex: SWISS/FEMALE, Target Tissue: Type of Lesion: UTERINE CERVIX: TUMOR, Dose [Carcinogen]: 300 UG IN BEESWAX IMPREGNATED COTTON THREAD INSERTED INTO THE CANAL OF THE UTERINE CERVIX FOR THE DURATION OF STUDY, Promoter: NONE USED
  tumour outcome (control, treated, inhibition, significance): 6/23 (26%), 1/30 (3%), 88%, p<0.05
